# Tests used:
# Format in all cases: cell-based
# [1] = test system: micro-organisms, including bacteria, yeast and molds; test: antimicrobial activity, bacteria, yeast and molds; conditions: comparison of table 2 with table 1
# Experimental: (§1) In order to assay the effectiveness of the compounds of the present invention, the MIC(minimum inhibitory concentration) on bacteria, yeast and fungi were determined.
# (§2) Minimum inhibitory concentrations were determined according to following procedure.
# (§3) For the bacteriostatic activity, the said invention compounds were serially diluted with 10 ml of sterile nutrient broth. Each tube was inoculated with 1 drop of an aqueous suspension of the various test organisms containing approximately 1×10^6 organisms/ml and incubated at 37 C. for 48 hrs. After incubation, the IMC of the said invention compounds were determined as the lowest concentration of compound in which no microscopic evidence of growth was observed. The compounds and the MIC value against bacteria of the compounds can be seen from the following table 1.
# (§4) For the evaluation of fungistatic activity, each compound was serially diluted in test tubes to give the desired concentration when mixed with 20 ml of steriled molten sabouraud dextrose agar, and poured into sterile petri dishes.
# (§5) After the medium was solidified, the spore-suspension of the each test organisms were inoculated by streaking and incubated at 25 C. for 7 days.
# (§6) The minimum concentration of the compound effective for inhibiting the growth is determined by examining the growth of the each organism.
# Pseudomonas aeruginosa = test: MIC against bacteria (serial dilution in nutrient broth); conditions: 37 C., 48 hrs
# Experimental: as §1, §2, §3
# Bacillus subtilis = test: as above; conditions: 37 C., 48 hrs
# Experimental: as §1, §2, §3
# Escherichia coli = test: as above; conditions: 37 C., 48 hrs
# Experimental: as §1, §2, §3
# Staphylococcus aureus = test: as above; conditions: 37 C., 48 hrs
# Experimental: as §1, §2, §3
# Fusarium solani = test: MIC for molds (sabouraud dextrose agar); conditions: 168 h, 25 C., 7 days, read-out: MIC for molds and yeast
# Experimental: as §1, §4, §5, §6
# (§7) In the above mentioned method the MIC for yeast and molds of the compounds A,B,C,D and E were obtained and can be seen from the table 2.
# Tricoderma virid = test: MIC for molds (sabouraud dextrose agar); conditions: 168 h, 25 C., 7 days, read-out: MIC for molds and yeast
# Experimental: as §1, §4, §5, §6, §7
# Aspergillus flavus = test: MIC for molds (sabouraud dextrose agar); conditions: 168 h, 25 C., 7 days, read-out: MIC for molds and yeast
# Experimental: as §1, §4, §5, §6, §7
# Aspergillus niger = test: MIC for molds (sabouraud dextrose agar); conditions: 168 h, 25 C., 7 days, read-out: MIC for molds and yeast
# Experimental: as §1, §4, §5, §6, §7
# Candida albicans = test: MIC for yeast (sabouraud dextrose agar); conditions: 168 h, 25 C., 7 days, read-out: MIC for molds and yeast
# Experimental: as §1, §4, §5, §6, §7
# bacteria = test: MIC against bacteria, summary over the test bacteria; conditions: for MIC: 48 h, four bacteria of table 1, read-out: MIC value (range over the test bacteria)
# Experimental: as §1, §2, §3
# molds and yeast = test: fungistatic activity, summary over molds and yeast; conditions: from table 2
# Experimental: as §1, §4, §5, §6, §7
Structure (SMILES),activity against bacteria compared with fungi and yeast [1],MIC (Pseudomonas aeruginosa) [µg/mL],MIC (Bacillus subtilis) [µg/mL],MIC (Escherichia coli) [µg/mL],MIC (Staphylococcus aureus) [µg/mL],MIC (Fusarium solani) [µg/mL],MIC (Tricoderma virid) [µg/mL],MIC (Aspergillus flavus) [µg/mL],MIC (Aspergillus niger) [µg/mL],MIC (Candida albicans) [µg/mL],MIC (bacteria) [µg/mL],strength relative to compound C and D (times as strong) (bacteria; from MIC values of table 1),fungistatic activity compared with the compounds C and D (molds and yeast)
"O=C1NC(c2ccc(O)cc2)C(=O)N1CO (centres unmarked) [A, 5-(4-hydroxyphenyl)-3-hydroxymethylhydantoin]",by far stronger activities against bacteria than fungi and yeast,200,300,100,200,1500,1000,3000,2000,4000,100 to 300,about 10 times,stronger fungistatic activities than the compounds C and D
"O=C1C(c2ccc(O)cc2)N(CO)C(=O)N1CO (centres unmarked) [B, 5-(4-hydroxyphenyl)-1,3-bis (hydroxymethyl)hydantoin]",by far stronger activities against bacteria than fungi and yeast,100,200,100,100,1000,1000,2000,1000,2000,100 to 200,,stronger fungistatic activities than the compounds C and D
"CC(O)N1C(=O)C(c2ccc(O)cc2)N(C(C)O)C1=O (centres unmarked) [C, 5-(4-hydroxyphenyl)-1,3-bis (1-hydroxyethyl)hydantoin]",by far stronger activities against bacteria than fungi and yeast,1200,1000,700,700,3000,3000,5000,4000,5000,700 to 1500,,
"CCC(O)N1C(=O)C(c2ccc(O)cc2)N(C(O)CC)C1=O (centres unmarked) [D, 5-(4-hydroxyphenyl)-1,3-bis (1-hydroxypropyl)hydantoin]",by far stronger activities against bacteria than fungi and yeast,1500,1200,900,1000,3000,2000,5000,3000,5000,700 to 1500,,
"O=C1NC(c2ccc(O)c(Cl)c2)C(=O)N1CO (centres unmarked) [E, 5-(3-Chloro-4-hydroxyphenyl)-3-hydroxymethylhydantoin]",by far stronger activities against bacteria than fungi and yeast,100,500,100,100,1000,1000,2000,2000,2000,100 to 500,,stronger fungistatic activities than the compounds C and D

# Reference: patent US4440934A, “5-(4-Hydroxyphenyl) hydantoin derivatives” (Pacific Chemical Ind. Co., Ltd., priority 1981, dated 1984)
